Source: patent publication US6528041B2, “Process for the preparation of 1-Propyl-2, 4, 5-trimethoxybenzene from toxic β-asarone of acorus calamus or from crude calamus oil containing β-asarone” (Council of Scientific and Industrial Research, priority 2000, dated 2003)

How the values were obtained:
albino mice = experiment: acute toxicity test for maximum tolerance dose (MTD) as a single dose; type: in vivo; details: for maximum tolerant doses (MTD): albino mice (25±2 g), intraperitoneal single dose, observed for 24 hr
From the text: There has been a lot of research on the effect of the substituents and functional groups which make a substance toxic or eliminate the toxicity. Any chemical substance that is electrophilic or metabolized to electrophilic species are often quite toxic, because electrophilic substances can react covalently with nucleophilic substituents of cellular macromolecules such as DNA, RNA, enzymes and proteins. These irreversible covalent interactions with important cellular macromolecules interfere with the macromolecule's function and can lead to a variety of toxic effects including cancer, hepatotoxicity, reproductive toxicity and developmental toxicity. It has been realised that the side chain of β-asarone contains carbon-carbon double bond, which can be metabolized to epoxide. The epoxide so formed is highly electrophilic and is capable of interacting with biological tissues, and could therefore, be the reason for the toxicity of β-asarone. In view of the above fact, it was possible to reduce the toxicity of β-asarone by hydrogenating the side olefinic bond into 1-propyl-2,4,5-trimethoxybenzene having a single bond as a side chain. The toxicity of the reduced calamus oil as well as of 1-Propyl-2,4,5-trimethoxy-benzene was tested. Toxicity test was performed on albino mice (body weight 25±2 g). […] Where the initial pilot dose was lethal, the sample was diluted. This was the acute toxicity test for maximum tolerance dose (MTD) as a single dose. […] It must be noted that further reduction in toxicity is possible by further dilution as the odor intensity of 1-Propyl-2,4,5-trimethoxybenzene and reduced calamus oil is substantially stronger than both β-asarone and calamus oil.

[1] = system: [3H] raclopride binding sites; details: in vitro; cited from earlier work
[2] = system: [3H] spiperone binding sites; details: in vitro; cited from earlier work
rats = details: cited from earlier work
animals = details: cited from earlier work
human lymphocytes = human lymphocytes in-vitro after metabolic activation; cited from earlier work

CCCc1cc(OC)c(OC)cc1OC [1-Propyl-2,4,5-trimethoxybenzene]
toxicity relative to the unreduced starting material (times less toxic) (albino mice; 1-Propyl-2,4,5-trimethoxybenzene vs β-asarone, reduced calamus oil vs calamus oil, from MTD in albino mice): nearly five times and five | maximum tolerant doses (MTD) (albino mice): 0.56 ml/kg b.w.

CCCc1cc(OC)c(OC)c(C(=O)NCC2CCCN2CC)c1O (stereo not drawn) [salicylamide derivative, 5,6-dimethoxy-N[(1-ethyl-2-pyrrolidinyl)methyl]-3-propylsalicylamide]
affinity for [3H] raclopride binding sites [1]: high and stereoselective affinity | affinity for [3H] spiperone binding sites [2]: high and stereoselective affinity

C/C=C/c1cc(OC)c(OC)cc1OC [α-Asarone]
lethality (rats): fatal

C/C=C\c1cc(OC)c(OC)cc1OC [β-asarone, cis-2,4,5-trimethoxy-1-propenylbenzene]
tumour induction (animals; after oral administration): induce tumours in the duodenal region | carcinogenicity (animals; animals, higher percentage of β-asarone): carcinogenic | chromosome damaging effect (human lymphocytes): chromosome damaging effect | maximum tolerant doses (MTD) (albino mice): 0.12 ml/kg b.w.
